# Test results reported in ChEMBL document CHEMBL1201862, “PubChem BioAssay data set” (2004).
#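 Five concentrations, 48 hours, 96-well plates. Abbreviation: GI50, concentration required for 50% inhibition of growth.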 The source made the active and inactive calls. Rule as the data show it: active = GI50 up to about 1.1 µM and inactive = higher.
# What was measured:
# Assay in all cases: inhibition of tumour cell growth, NCI panel, 48 h
# [1] = test system: UO-31
# [2] = test system: NCI-H226
# [3] = test system: LXFL 529
# [4] = test system: XF498
# [5] = test system: HCT-15
# [6] = test system: SK-MEL-28
# [7] = test system: SN12C
# [8] = test system: OVCAR-8
# [9] = test system: K562
# [10] = test system: UACC-62
# [11] = test system: A549
# [12] = test system: Malme-3M
# [13] = test system: KM12
# [14] = test system: CCRF-CEM
# [15] = test system: MOLT-4
# [16] = test system: SNB-78
# [17] = test system: SK-MEL-2
# [18] = test system: U-251
# [19] = test system: RXF 631
# [20] = test system: DMS-114
# [21] = test system: IGROV-1
# [22] = test system: SNB-75
# [23] = test system: LOX IMVI
# [24] = test system: RXF 393
# [25] = test system: A498
# [26] = test system: NCI-H460
# [27] = test system: HT-29
# [28] = test system: DLD-1
# [29] = test system: OVCAR-5
# [30] = test system: HCT-116
# [31] = test system: ACHN
# [32] = test system: SF-268
# [33] = test system: EKVX
# [34] = test system: OVCAR-3
# [35] = test system: RPMI-8226
# [36] = test system: SF-295
# [37] = test system: M14
# [38] = test system: SW-620
# [39] = test system: NCI-H522
# [40] = test system: HOP-92
# [41] = test system: CAKI-1
# [42] = test system: 786-0
# [43] = test system: DMS-273
# [44] = test system: OVCAR-4
# [45] = test system: HOP-62
# [46] = test system: UACC-257
# [47] = test system: HCC 2998
# [48] = test system: SK-OV-3
# [49] = test system: M19-MEL
# [50] = test system: TK-10
# [51] = test system: COLO 205
# [52] = test system: NCI-H23
# [53] = test system: HL-60
# [54] = test system: SR
# [55] = test system: SNB-19
# [56] = test system: KM-20L2
# [57] = test system: SK-MEL-5
# [58] = test system: SF-539
# [59] = test system: HOP-18
smiles,measurement,setting,value
CCOC(=O)C(/N=N\c1ccc(S(N)(=O)=O)cc1)C(C)=O (centres undefined),GI50,[1],> 100 µM (inactive)
same,GI50,[2],> 100 µM (inactive)
same,GI50,[3],> 100 µM (inactive)
same,GI50,[4],> 100 µM (inactive)
same,GI50,[5],> 100 µM
same,GI50,[6],> 100 µM (inactive)
same,GI50,[7],> 100 µM (inactive)
same,GI50,[8],> 100 µM (inactive)
same,GI50,[9],> 100 µM (inactive)
same,GI50,[10],> 100 µM (inactive)
same,GI50,[11],> 100 µM (inactive)
same,GI50,[12],> 100 µM (inactive)
same,GI50,[13],> 100 µM (inactive)
same,GI50,[14],> 100 µM (inactive)
same,GI50,[15],> 100 µM (inactive)
same,GI50,[16],> 100 µM (inactive)
same,GI50,[17],> 100 µM (inactive)
same,GI50,[18],> 100 µM (inactive)
same,GI50,[19],> 100 µM (inactive)
same,GI50,[20],> 100 µM (inactive)
same,GI50,[21],> 100 µM (inactive)
same,GI50,[22],> 100 µM (inactive)
same,GI50,[23],> 100 µM (inactive)
same,GI50,[24],> 100 µM (inactive)
same,GI50,[25],> 100 µM (inactive)
same,GI50,[26],> 100 µM (inactive)
same,GI50,[27],> 100 µM (inactive)
same,GI50,[28],> 100 µM (inactive)
same,GI50,[29],> 100 µM (inactive)
same,GI50,[30],> 100 µM (inactive)
same,GI50,[31],> 100 µM (inactive)
same,GI50,[32],> 100 µM (inactive)
same,GI50,[33],> 100 µM (inactive)
same,GI50,[34],> 100 µM (inactive)
same,GI50,[35],> 100 µM (inactive)
same,GI50,[36],> 100 µM (inactive)
same,GI50,[37],> 100 µM (inactive)
same,GI50,[38],> 100 µM (inactive)
same,GI50,[39],> 100 µM (inactive)
same,GI50,[40],> 100 µM (inactive)
same,GI50,[41],> 100 µM (inactive)
same,GI50,[42],> 100 µM (inactive)
same,GI50,[43],> 100 µM (inactive)
same,GI50,[44],> 100 µM (inactive)
same,GI50,[45],> 100 µM (inactive)
same,GI50,[46],> 100 µM (inactive)
same,GI50,[47],99.5 µM (inactive)
same,GI50,[48],> 100 µM (inactive)
same,GI50,[49],> 100 µM (inactive)
same,GI50,[50],> 100 µM (inactive)
same,GI50,[51],> 100 µM (inactive)
same,GI50,[52],> 100 µM (inactive)
same,GI50,[53],> 100 µM (inactive)
same,GI50,[54],> 100 µM (inactive)
same,GI50,[55],> 100 µM (inactive)
same,GI50,[56],> 100 µM (inactive)
same,GI50,[57],> 100 µM (inactive)
same,GI50,[58],> 100 µM (inactive)
same,GI50,[59],> 100 µM (inactive)
